This note sets out measurements from US9624214B2, “Amino-substituted imidazo[1,2-a]pyridinecarboxamides and their use” (BAYER PHARMA AKTIENGESELLSCHAFT, priority 2012, dated 2017).

Structures are written as SMILES.

This test deals with T1, recombinant guanylate cyclase reporter cell line (Rattus norvegicus, UniProt P19686+P20595).
T1 construct: expressed in transfected cells
T1 sequence (P20595 1-619): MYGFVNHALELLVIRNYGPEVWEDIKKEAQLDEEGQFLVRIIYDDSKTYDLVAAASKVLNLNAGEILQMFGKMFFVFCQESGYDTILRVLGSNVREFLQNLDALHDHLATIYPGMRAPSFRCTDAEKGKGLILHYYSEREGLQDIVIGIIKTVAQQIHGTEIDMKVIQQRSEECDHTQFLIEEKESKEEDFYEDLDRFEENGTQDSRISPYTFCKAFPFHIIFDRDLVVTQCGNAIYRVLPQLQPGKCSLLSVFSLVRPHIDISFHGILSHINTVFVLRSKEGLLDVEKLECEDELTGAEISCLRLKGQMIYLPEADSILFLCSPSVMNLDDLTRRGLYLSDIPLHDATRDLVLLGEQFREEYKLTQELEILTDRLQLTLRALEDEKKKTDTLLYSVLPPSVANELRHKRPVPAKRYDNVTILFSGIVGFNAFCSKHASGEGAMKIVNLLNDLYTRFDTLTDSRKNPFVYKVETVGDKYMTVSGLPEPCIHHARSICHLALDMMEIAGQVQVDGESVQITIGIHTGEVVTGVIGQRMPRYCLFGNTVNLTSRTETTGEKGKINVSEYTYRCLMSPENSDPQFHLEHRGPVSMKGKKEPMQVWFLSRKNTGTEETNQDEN
T1 sequence (P19686 1-690): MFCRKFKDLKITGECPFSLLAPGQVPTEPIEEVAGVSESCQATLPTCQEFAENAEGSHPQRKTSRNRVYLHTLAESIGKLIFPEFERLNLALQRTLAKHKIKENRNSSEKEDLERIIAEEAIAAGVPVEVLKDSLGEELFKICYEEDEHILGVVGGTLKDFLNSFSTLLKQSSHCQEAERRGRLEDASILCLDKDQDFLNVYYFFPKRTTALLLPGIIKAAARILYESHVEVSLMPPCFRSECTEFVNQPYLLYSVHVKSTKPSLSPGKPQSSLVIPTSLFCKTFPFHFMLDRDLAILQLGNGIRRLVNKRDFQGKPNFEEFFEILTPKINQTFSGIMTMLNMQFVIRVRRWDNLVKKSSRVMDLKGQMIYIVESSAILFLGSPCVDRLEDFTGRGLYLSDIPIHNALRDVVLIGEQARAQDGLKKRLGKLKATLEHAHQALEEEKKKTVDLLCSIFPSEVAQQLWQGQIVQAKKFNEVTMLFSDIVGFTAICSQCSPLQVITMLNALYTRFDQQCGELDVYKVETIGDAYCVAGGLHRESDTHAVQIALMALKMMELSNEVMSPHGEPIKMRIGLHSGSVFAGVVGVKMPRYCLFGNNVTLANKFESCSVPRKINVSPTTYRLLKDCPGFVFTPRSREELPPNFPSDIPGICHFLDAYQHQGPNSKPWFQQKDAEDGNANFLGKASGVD
The experiment in a line: B-2. Action on recombinant guanylate cyclase reporter cell line. The format is cell-based. Particulars: MEC = minimal effective concentration; in some cases mean values from individual determinations. Summed up: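 Rat recombinant guanylate cyclase reporter cell line measures cellular activity. Value reported as MEC (minimal effective concentration), sometimes averaged over individual determinations.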
With `COc1ccc(CC(C)(CN)NC(=O)c2c(C)nc3c(OCc4c(F)cccc4F)cc(C)cn23)cc1` (racemic) [Example 386, rac-N-[1-amino-3-(4-methoxyphenyl)-2-methylpropan-2-yl]-8-[(2,6-difluorobenzyl)oxy]-2,6-dimethylimidazo[1,2-a]pyridine-3-carboxamide], the MEC is 0.65 µM.

`Cc1nc2c(OCc3c(F)cccc3F)cc(Cl)cn2c1C(=O)NCCNC(C)C` [Example 149, 6-chloro-8-[(2,6-difluorobenzyl)oxy]-N-[2-(isopropylamino)ethyl]-2-methylimidazo[1,2-a]-pyridine-3-carboxamide]: the MEC was 1.00 µM.

As for `Cc1nc2c(OCc3c(F)cccc3F)cccn2c1C(=O)NC(CN)CC(F)(F)F` (racemic) [Example 2, rac-N-(1-Amino-4,4,4-trifluorobutan-2-yl)-8-[(2,6-difluorobenzyl)oxy]-2-methylimidazo[1,2-a]-pyridine-3-carboxamide], the MEC was 0.65 µM.

For `COCC(C)(N)CNC(=O)c1c(C)nc2c(OCc3c(F)cccc3F)cc(Cl)cn12` (racemic) [Example 159, rac-N-(2-amino-3-methoxy-2-methylpropyl)-6-chloro-8-[(2,6-difluorobenzyl)oxy]-2-methylimidazo[1,2-a]pyridine-3-carboxamide], the MEC came to 0.30 µM.

As to `CCCC(C)(N)CNC(=O)c1c(C)nc2c(OCc3c(F)cccc3F)cc(C3CC3)cn12` (single isomer, unassigned; enantiomer b) [Example 281, ent-N-(2-amino-2-methylpentyl)-6-cyclopropyl-8-[(2,6-difluorobenzyl)oxy]-2-methylimidazo[1,2-a]pyridine-3-carboxamide (Enantiomer B)], the MEC came to 0.3 µM.

With `Cc1nc2c(OCc3c(F)cccc3F)cc(F)cn2c1C(=O)NCC(C)(C)N` [Example 140, N-(2-Amino-2-methylpropyl)-8-[(2,6-difluorobenzyl)oxy]-6-fluoro-2-methylimidazo[1,2-a]-pyridine-3-carboxamide], the MEC turned out to be 1.00 µM.

Consider `Cc1nc2c(OCc3c(F)cccc3F)cccn2c1C(=O)NC(CN)c1ccc(F)cc1` (racemic) [Example 9, rac-N-[2-Amino-1-(4-fluorophenyl)ethyl]-8-[(2,6-difluorobenzyl)oxy]-2-methylimidazo[1,2-a]-pyridine-3-carboxamide], for which the MEC came out at 0.30 µM.

Consider `Cc1nc2c(OCc3c(F)cccc3F)cccn2c1C(=O)NCCN1CCOCC1` [Example 89, 8-[(2,6-difluorobenzyl)oxy]-2-methyl-N-[2-(morpholin-4-yl)ethyl]imidazo[1,2-a]pyridine-3-carboxamide], for which the MEC came out at 0.65 µM.

`Cc1cc(OCc2c(F)cccc2F)c2nc(C)c(C(=O)NC(CN)c3ccc4c(c3)OCCO4)n2c1` (racemic) [Example 388, rac-N-[2-amino-1-(2,3-dihydro-1,4-benzodioxin-6-yl)ethyl]-8-[(2,6-difluorobenzyl)oxy]-2,6-dimethylimidazo[1,2-a]pyridine-3-carboxamide]: the MEC was determined as 0.30 µM.

As to `Cc1nc2c(OCc3c(F)cccc3F)cccn2c1C(=O)NC1CCNc2ccccc21` (single isomer, unassigned; ent-8) [Example 52, ent-8-[(2,6-Difluorobenzyl)oxy]-2-methyl-N-(1,2,3,4-tetrahydroquinolin-4-yl)imidazo[1,2-a]-pyridine-3-carboxamide], the MEC came to 0.03 µM.

`Cc1cc(OCc2c(F)cccc2F)c2nc(C)c(C(=O)NCCN3CCOCC3)n2c1` [Example 136, 8-[(2,6-difluorobenzyl)oxy]-2,6-dimethyl-N-[2-(morpholin-4-yl)ethyl]imidazo[1,2-a]pyridine-3-carboxamide]: the MEC turned out to be 0.10 µM.

Regarding `Cc1cc(OCc2c(F)cccc2F)c2nc(C)c(C(=O)NCCN3CCN(C)CC3)n2c1` [Example 137, 8-[(2,6-difluorobenzyl)oxy]-2,6-dimethyl-N-[2-(4-methylpiperazin-1-yl)ethyl]imidazo[1,2-a]-pyridine-3-carboxamide], the MEC worked out at 1.00 µM.

Regarding `Cc1nc2c(OCc3c(F)cccc3F)cccn2c1C(=O)NC1CCNc2ccccc21` (racemic) [Example 50, rac-8-[(2,6-Difluorobenzyl)oxy]-2-methyl-N-(1,2,3,4-tetrahydroquinolin-4-yl)imidazo[1,2-a]-pyridine-3-carboxamide], the MEC came out at 0.03 µM.

Turning to `Cc1nc2c(OCc3c(F)cccc3F)cccn2c1C(=O)NC(C)[C@@H](C)N` (single isomer, unassigned) [Example 177], the MEC was 1.00 µM.

With `Cc1nc2c(OCc3c(F)cccc3F)cccn2c1C(=O)NC1CC2CCCC(C1)N2` (stereo not shown) [Example 27, N-(9-azabicyclo[3.3.1]non-3-yl)-8-[(2,6-difluorobenzyl)oxy]-2-methylimidazo[1,2-a]-pyridine-3-carboxamide], the MEC is 1.00 µM.

With `Cc1nc2c(OCc3c(F)cccc3F)cccn2c1C(=O)NC12CNCCC1C2` (single isomer, unassigned) [Example 185, ent-N-(3-Azabicyclo[4.1.0]hept-1-yl)-8-[(2,6-difluorobenzyl)oxy]-2-methylimidazo[1,2-a]pyridine-3-carboxamide], the MEC is 1.00 µM.

Take `Cc1nc2c(OCc3c(F)cccc3F)cccn2c1C(=O)NCC(C)(N)CO` (racemic) [Example 273, rac-N-(2-Amino-3-hydroxy-2-methylpropyl)-8-[(2,6-difluorobenzyl)oxy]-2-methylimidazo[1,2-a]-pyridine-3-carboxamide]: the MEC was found to be 1.00 µM.

As to `CCCC(C)(N)CNC(=O)c1c(C2CC2)nc2c(OCc3c(F)cccc3F)cc(C)cn12` (stereo not drawn) [Example 322, ent-N-(2-amino-2-methylpentyl)-2-cyclopropyl-8-[(2,6-difluorobenzyl)oxy]-6-methylimidazo[1,2-a]pyridine-3-carboxamide], the MEC was determined as 0.30 µM.

As to `Cc1cc(OCc2c(F)cccc2F)c2nc(C)c(C(=O)NCC(N)c3ccc4c(c3)OCCO4)n2c1` (racemic) [Example 371, rac-N-[2-amino-2-(2,3-dihydro-1,4-benzodioxin-6-yl)ethyl]-8-[(2,6-difluorobenzyl)oxy]-2,6-dimethylimidazo[1,2-a]pyridine-3-carboxamide], the MEC worked out at 3.00 µM.

As to `Cc1cc(OCc2c(F)cccc2F)c2nc(C)c(C(=O)NCC(C)(N)CC(C)C)n2c1` (single isomer, unassigned) [Example 220, ent-N-(2-Amino-2,4-dimethylpentyl)-8-[(2,6-difluorobenzyl)oxy]-2,6-dimethylimidazo[1,2-a]-pyridine-3-carboxamide], the MEC was 0.10 µM.

For the molecule `Cc1nc2c(OCc3c(F)cccc3F)cccn2c1C(=O)NC12CNCCC1C2` (single isomer, unassigned) [Example 184, ent-N-(3-Azabicyclo[4.1.0]hept-1-yl)-8-[(2,6-difluorobenzyl)oxy]-2-methylimidazo[1,2-a]pyridine-3-carboxamide], the MEC stood at 1.00 µM.

In the case of `Cc1nc2c(OCc3c(F)cccc3F)cccn2c1C(=O)NCC(C)(C)N(C)C` [Example 145, 8-[(2,6-difluorobenzyl)oxy]-N-[2-(dimethylamino)-2-methylpropyl]-2-methylimidazo[1,2-a]pyridine-3-carboxamide], the MEC was determined as 3.00 µM.
